# Source: patent US8492589B2, “Alkynyl phenyl derivative compounds for treating ophthalmic diseases and disorders” (Acucela Inc., priority 2007, dated 2013)
# Marks after values point to notes of the source that are not given here.
# Legend:
# [1] = system: ERG response in the eyes of mice; test: Electroretinographic (ERG) study, C57BL/6 mice; assay type: in vivo; conditions: for b-wave ampl. 0.01 cd.s/m^2: dark-adapted ERG, in µV (unit assumed); for Vmax average: light-adapted ERG
# Method: This example describes determining the effect of an alkyne derivative compound that is a visual cycle modulator on the magnitude of the ERG response in the eyes of mice after oral dosing of the animals with the compound. […]
# Three groups of nine-week old mice (19-25 grams), both genders (strain C5 7BL/6, Charles River Laboratories, Wilmington, Mass.) are housed at room temperature, 72±4° F., and relative humidity of approximately 25%. Animals are housed in a 12-hour light/dark cycle environment, have free access to feed and drinking water and are checked for general health and well-being prior to use and during the study. Body weights are determined for a representative sample of mice prior to initiation of dosing. The average weight determined from this sampling is used to establish the dose for all mice in the study.
# (§1) Each test compound is dissolved in the control solvent (EtOH), and diluted 1:10 ([…]) in corn oil (Crisco Pure Corn Oil, J.M. Smucker Company, Orrville, Ohio) to the desired dose (mg/kg) in the desired volume (˜0.1 mL/animal). The control vehicle is ethanol: corn oil (1:10 (0.9 ml/9 ml)). The treatment designations and animal assignments are described in Table 16.
# (§2) Animals are dosed once orally by gavage, with the assigned vehicle control or test compounds during the light cycle (between 30 min and 3 hours 30 min after the beginning of the light cycle).
# (§3) ERG recordings are made on dark-adapted and, subsequently (during the course of the same experiment), on light-adapted states. For the dark-adapted response, animals are housed in a dark-adapted environment for at least 1 hour prior to the recording, commencing at least 30 minutes after the start of the light cycle.
# (§4) Pupils were dilated by placing a 5 microliter drop of mydriatic solution (tropicamide 0.5%) in the recorded eye. A mouse corneal monopolar contact lens electrode (Mayo Corporation, Inazawa, Aichi, Japan) was placed on the cornea, and a subcutaneous reference low profile needle 12 mm electrode (Grass Telefactor, W Warwick, R.I.) was placed medial from the eye. A ground needle electrode was placed in the tail. Data collection was obtained using an Espion E^2 (Diagnosys LLC, Littleton, Mass.) ERG recording system with Color Dome Ganzfeld stimulator. Full dark-adapted intensity-response function was determined following a brief white flash stimuli of 14 intensities ranging from 0.0001 cd·s/m^2 to 333 cd·s/m^2. Subsequently, full light-adapted intensity-response function was determined following a brief white flash stimuli of 9 intensities ranging from 0.33 cd·s/m^2 to 333 cd·s/m^2. Analysis of the obtained responses was done off-line. Intensity-response function determination was done by fitting a sigmoid function to the data (Naka K I, Rushton Wash., 1966; Naka K I, Rushton Wash., 1967).
# [2] = molecular target: T1, recombinant human RPE65 and LRAT (Homo sapiens, UniProt Q16518); test: In vitro isomerase inhibition assay, recombinant human enzyme system (HEK293 homogenate); assay type: biochemical
# T1 construct: expressed in transfected cells; host or cells: HEK293 cell clone (homogenate); CRALBP was made in E. coli TOP10
# T1 sequence (Q16518 2-533 limits assumed): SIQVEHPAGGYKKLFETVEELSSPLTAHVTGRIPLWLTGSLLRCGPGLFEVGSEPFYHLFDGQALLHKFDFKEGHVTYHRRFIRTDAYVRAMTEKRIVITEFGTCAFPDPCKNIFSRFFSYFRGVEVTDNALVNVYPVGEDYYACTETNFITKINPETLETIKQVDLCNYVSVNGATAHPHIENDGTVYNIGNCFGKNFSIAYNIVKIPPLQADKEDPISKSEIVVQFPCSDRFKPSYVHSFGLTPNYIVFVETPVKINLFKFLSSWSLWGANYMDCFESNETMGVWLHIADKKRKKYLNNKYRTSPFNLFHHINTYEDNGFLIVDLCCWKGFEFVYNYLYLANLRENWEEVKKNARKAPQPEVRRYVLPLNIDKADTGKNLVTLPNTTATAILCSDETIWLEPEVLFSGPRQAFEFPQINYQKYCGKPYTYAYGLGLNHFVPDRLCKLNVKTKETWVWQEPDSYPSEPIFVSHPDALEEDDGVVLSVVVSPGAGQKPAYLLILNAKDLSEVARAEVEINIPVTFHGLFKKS
# Method: The concentration dependent effect of the compounds disclosed herein on the retinol isomerization reaction can also be evaluated with a recombinant human enzyme system. […] A homogenate of HEK293 cell clone expressing recombinant human RPE65 and LRAT were the source of the visual enzymes, and exogenous all-trans-retinol (about 20 μM) was used as the substrate. Recombinant human CRALBP (about 80 ug/mL) was added to enhance the formation of 11-cis-retinal. The 200 μL Bis-Tris Phosphate buffer (10 mM, pH 7.2) based reaction mixture also contains 0.5% BSA, and 1 mM NaPPi. In this assay, the reaction was carried out at 37° C. in duplicates for one hour and was terminated by addition of 300 μL methanol. The amount of reaction product, 11-cis-retinol, was measured by HPLC analysis following Heptane extraction of the reaction mixture. […] The ability of the numerous compounds disclosed herein to inhibit isomerization reaction is quantified and the respective IC50 value is determined. The tables below summarises the IC50 values of various compounds of the present invention determined by either of the above two methods. FIG. 1 is a representative figure of the IC50 determination of the compound of Example 2.
# [3] = system: ERG response in the eyes of mice; test: Electroretinographic (ERG) study, BALB/c mice; assay type: in vivo; parameters: Vmax average: unit not given beside the values; conditions: for b-wave ampl. 0.01 cd.s/m^2: dark-adapted ERG, in µV (unit assumed); for Vmax average: light-adapted ERG
# Method: as §1, §2, §3, §4
# A related example describes determining the effect of an alkyne derivative compound that is a visual cycle modulator on the level of ERG response in the eyes of mice after oral dosing of the animals with the compound. The experimental procedure is the same as that described in the previous example with the following exceptions: 12 to 16-week old BALB/c mice were used (body weights 16-25 g).
# [4] = 4 h, dose 1 (mg/kg oral), aggregated average
smiles,measurement,setting,value
"CCCC(O)(C#Cc1cccc(CCCN)c1)CCC [Example 2, 4-((3-(3-Aminopropyl)phenyl)ethynyl)heptan-4-ol]",Change vs. control (%),"[1]; dark-adapted ERG b-wave, 4 h, dose 0.5 (mg/kg oral)",−50.65%
same,Change vs. control (%),"[1]; dark-adapted ERG b-wave, 4 h, dose 1 (mg/kg oral)",−94.04%
same,Change vs. control (%),"[1]; dark-adapted ERG b-wave, 25 h, dose 1 (mg/kg oral), compared to 4 hours vehicle",−19.93%**
same,b-wave ampl. 0.01 cd.s/m^2,"[1]; 4 h, dose 0.5 (mg/kg oral)",265
same,b-wave ampl. 0.01 cd.s/m^2,[1]; [4],32*
same,b-wave ampl. 0.01 cd.s/m^2,"[1]; 25 h, dose 1 (mg/kg oral)",430
same,Change vs. control (%),"[1]; light-adapted ERG Vmax, 4 h, dose 0.5 (mg/kg oral)",36.49%
same,Change vs. control (%),"[1]; light-adapted ERG Vmax, 4 h, dose 1 (mg/kg oral)",77.03%
same,Change vs. control (%),"[1]; light-adapted ERG Vmax, 25 h, dose 1 (mg/kg oral), compared to 4 hours vehicle",91.89%**
same,Vmax average,"[1]; 4 h, dose 0.5 (mg/kg oral)",202
same,Vmax average,[1]; [4],262*
same,Vmax average,"[1]; 25 h, dose 1 (mg/kg oral)",284
same,inhibition of isomerase activity (figure legend),[2],concentration-dependent inhibition
"CCCC(O)(C#Cc1cccc(C(O)CCN)c1)CCC (centres unmarked) [Example 19, 4-((3-(3-Amino-1-hydroxypropyl)phenyl)ethynyl)heptan-4-ol]",Change vs. control (%),"[3]; dark-adapted ERG b-wave, 4 h, dose 0.2, BALB/c mice",−52.89%
same,Change vs. control (%),"[3]; dark-adapted ERG b-wave, 4 h, dose 0.3, BALB/c mice",−80.77%
same,Change vs. control (%),"[3]; dark-adapted ERG b-wave, 4 h, dose 0.6, BALB/c mice",−95.92%
same,Change vs. control (%),"[3]; dark-adapted ERG b-wave, 25 h, dose 0.3, BALB/c mice, compared to 4 hours vehicle",−55.75%**
same,b-wave ampl. 0.01 cd.s/m^2,"[3]; 4 h, dose 0.2, BALB/c mice",263
same,b-wave ampl. 0.01 cd.s/m^2,"[3]; 4 h, dose 0.3, BALB/c mice, aggregated average",107*
same,b-wave ampl. 0.01 cd.s/m^2,"[3]; 4 h, dose 0.6, BALB/c mice",23
same,b-wave ampl. 0.01 cd.s/m^2,"[3]; 25 h, dose 0.3, BALB/c mice",247
same,Change vs. control (%),"[3]; light-adapted ERG Vmax, 4 h, dose 0.2, BALB/c mice",−0.13%
same,Change vs. control (%),"[3]; light-adapted ERG Vmax, 4 h, dose 0.3, BALB/c mice",11.33%
same,Change vs. control (%),"[3]; light-adapted ERG Vmax, 4 h, dose 0.6, BALB/c mice",6.34%
same,Change vs. control (%),"[3]; light-adapted ERG Vmax, 25 h, dose 0.3, BALB/c mice",10.66%
same,Vmax average,"[3]; 4 h, dose 0.2, BALB/c mice",163
same,Vmax average,"[3]; 4 h, dose 0.3, BALB/c mice",181
same,Vmax average,"[3]; 4 h, dose 0.6, BALB/c mice",173
same,Vmax average,"[3]; 25 h, dose 0.3, BALB/c mice",180
